Measured values taken from patent US20130078718A1, “CONVERSION OF VASCULAR ENDOTHELIAL CELLS INTO MULTIPOTENT STEM-LIKE CELLS” (PRESIDENT AND FELLOWS OF HARVARD COLLEGE, priority 2010, published 2013).
“Also recorded” adds a separate entry of the source.

T1: ALK2 with ALK5 (Homo sapiens, UniProt Q04771)
T1 construct: endogenous in cells; host or cells: HUVEC
T1 sequence (Q04771 21-509): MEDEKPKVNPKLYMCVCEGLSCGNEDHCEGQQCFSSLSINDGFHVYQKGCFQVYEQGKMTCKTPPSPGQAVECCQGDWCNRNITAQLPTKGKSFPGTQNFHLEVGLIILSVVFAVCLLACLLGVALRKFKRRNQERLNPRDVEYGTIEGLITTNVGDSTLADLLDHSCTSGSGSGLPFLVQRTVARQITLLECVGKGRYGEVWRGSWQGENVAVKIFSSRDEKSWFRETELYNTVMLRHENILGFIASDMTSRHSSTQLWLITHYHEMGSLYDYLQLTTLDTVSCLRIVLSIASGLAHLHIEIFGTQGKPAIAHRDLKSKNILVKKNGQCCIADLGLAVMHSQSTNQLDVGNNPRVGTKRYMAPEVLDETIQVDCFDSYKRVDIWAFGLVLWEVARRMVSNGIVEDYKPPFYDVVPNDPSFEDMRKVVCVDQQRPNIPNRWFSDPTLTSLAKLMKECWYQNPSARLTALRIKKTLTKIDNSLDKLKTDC

B1: BMP7: Recombinant BMP7 protein (R&D Systems), ALK2 activating ligand that inhibits EndMT (protein)
chain: STGSKQRSQNRSKTPKNQEALRMANVAENSSSDQRQACKKHELYVSFRDLGWQDWIIAPEGYAAYYCEGECAFPLNSYMNATNHAIVQTLVHFINPETVPKPCCAPTQLNAISVLYFDDSSNVILKKYRNMVVRACGCH

Assays:
ALK2 = test: siRNA knockdown of ALK2 expression (immunoblotting); type: cell-based, human; conditions: transfected for 24 hours
Experimental: (§1) siRNA gene expression knockdown studies were performed using the TriFECTa RNAi kit (Integrated DNA Technologies) and corresponding protocol. Each 27 mer siRNA duplex was transfected into cells using X-tremeGene siRNA transfection reagent (Roche) following the manufacturer's guidelines. siRNA was synthesized (Integrated DNA Technologies) with the following sequences: ALK2: 5′-[…]-3′ (SEQ ID NO: 51); negative control: 5′-[…]-3′ (SEQ ID NO: 52).
(§2) siRNA gene expression knockdown studies were performed using the TriFECTa RNAi kit (Integrated DNA Technologies) and corresponding protocol. Each 27 mer siRNA duplex was transfected into cells using X-tremeGene siRNA transfection reagent (Roche) following the manufacturer's guidelines. siRNA was synthesized (Integrated DNA Technologies) with the following sequences: […]

[1] = system: endothelial cells (HUVEC, HCMEC); test: RNA interference: effect of ALK siRNA on TGF-β2- or BMP4-induced EndMT and multipotency; type: cell-based, human
Experimental: Cells were grown in StemPro osteogenic, chondrogenic, or adipogenic culture medium (Invitrogen). Alkaline phosphatase staining was performed using the alkaline phosphatase kit and protocol (Sigma-Aldrich) on cultures grown in osteogenic medium for 7 days to detect osteoblasts. Alizarin Red (Sigma-Aldrich) staining was performed for 30 minutes on cultures grown in osteogenic medium for 21 days to detect matrix calcification. Alcian Blue (Sigma) staining was used to stain chondrocyte proteoglycans for 5 minutes in cultures grown in chondrogenic medium for 14 days. Oil Red O (Sigma-Aldrich) staining was performed for 15 minutes on cultures grown in adipogenic medium for 7 days.
as §1
Cells were grown in StemPro osteogenic, chondrogenic, or adipogenic culture medium (Invitrogen). Alkaline phosphatase staining was performed using the alkaline phosphatase kit and protocol (Sigma-Aldrich) on cultures grown in osteogenic medium for 7 d to detect osteoblasts. Alizarin Red (Sigma-Aldrich) staining was performed for 30 min on cultures grown in osteogenic medium for 21 d to detect matrix calcification. Alcian Blue (Sigma) staining was used to stain chondrocyte proteoglycans for 5 minutes in cultures grown in chondrogenic medium for 14 d. Oil Red O (Sigma-Aldrich) staining was performed for 15 min on cultures grown in adipogenic medium for 7 d. For in vivo analysis, endothelial cells were labeled with fluorescent quantum dots using the Qtracker 525 Cell Labeling Kit (Invitrogen). Cells were treated in culture to induce EndMT then absorbed into OPLA polylactic acid scaffolds (BD Biosciences). Scaffolds were surgically implanted subcutaneously into immunodeficient nude mice (Nu/Nu strain; Charles River Laboratories). Local injection of StemPro differentiation medium (described above) was performed in the area of the implants every 72 h for 6 weeks. Scaffolds were cryosectioned and stained with Alizarin Red, Alcian Blue, or Oil Red O as described above. All procedures were reviewed and approved by the Institutional Animal Care and Use Committee at Harvard Medical School.
as §2

HUVECs = test: Assessment of EndMT inhibitors (immunoblotting); type: cell-based, human; conditions: dorsomorphin 5 μM, BMP7 10 ng ml−1, VEGF 25 ng ml−1; for TGF-β2-induced changes in CD31, FSP-1 and CD44 expression (immunoblots): HUVECs
Experimental: Human umbilical vein endothelial cells (HUVEC) and human cutaneous microvascular endothelial cells (HCMEC) isolated as previously described (35). Cells were tested for purity and found to express no markers for lymphatic endothelial cells or stromal cells (pericytes, smooth muscle cells, etc.) (36). This was reconfirmed by flow cytometry analysis (data not shown). Clonal populations were isolated with PYREX 8×8 mm cloning cylinders (Corning) and shown to respond in a manner identical to that of the cultures used for our experiments (FIG. 25B-D). Cells were grown in culture using EGM-2 medium (Cambrex), containing 10% FBS and 1% Penicillin/Streptomycin, followed by human endothelial serum free medium (Gibco) 24 h prior to all experimental conditions. Bone marrow derived mesenchymal stem cells (ScienCell Research Laboratories) were grown in mesenchymal stem cell medium (ScienCell Research Laboratories). Bone marrow derived hematopoietic stem cells (Lonza) were grown in HPGM medium (Lonza). Human corneal fibroblasts, from a stock provided by Dr. Elizabeth Hay (Harvard Medical School), were grown in RPMI medium, containing 10% FBS and 1% Penicillin/Streptomycin. Primary human osteoblasts, chondrocytes, and adipocytes and their respective growth media were obtained from Cell Applications, Inc. […] Recombinant VEGF (R&D Systems) was added to cultures at a concentration of 25 ng ml^-1. Dorsomorphin (Sigma-Aldrich) was added to cultures at a concentration of 5 μM. All experiments for this study were performed at minimum in triplicate. Immunoassays were performed using the following antibodies at concentrations (and using protocols) recommended by the respective manufacturers: […] Stressgen), phospho-Smad2 (3101), Smad2 (3122), phospho-Smad5 (9516), Smad5 (9517; […] Santa Cruz Biotechnology), osterix (ab22552), adiponectin (ab22554), N-cadherin (ab76057), NG2 (ab83508), vWF (ab68545; Abcam); CD31 (IR610; Dako), […]; GenScript); α-SMA ([…]), β-actin (A1978; Sigma-Aldrich). Samples were run with Criterion precast SDS-PAGE Gels (Bio-Rad). […] TrueBlot IgG beads (eBioscience) were used for immunoprecipitation experiments. AlexaFluor secondary antibodies (Invitrogen) were used at a dilution of 1:200. Images were acquired using a Nikon 80i fluorescence microscope.

EndMT = conditions: references 30, 31; cited from earlier work
Smad2 and Smad5 = test: Smad phosphorylation by immunoblotting; type: cell-based, human; conditions: HUVECs, 10 ng ml−1, 1 h
Experimental: Human umbilical vein endothelial cells (HUVEC) and human cutaneous microvascular endothelial cells (HCMEC) were provided by J. Bischoff (Children's Hospital Boston) and isolated as previously described^35. […] Cells were grown in culture using EGM-2 medium (Cambrex), containing 10% FBS and 1% Penicillin/Streptomycin, followed by human endothelial serum free medium (Gibco) 24 hours prior to all experimental conditions. Bone marrow derived mesenchymal stem cells (ScienCell Research Laboratories) were grown in mesenchymal stem cell medium (ScienCell Research Laboratories). Human corneal fibroblasts, from a stock initially provided by E. Hay (Harvard Medical School), were grown in RPMI medium, containing 10% FBS and 1% Penicillin/Streptomycin. Primary human osteoblasts, chondrocytes, and adipocytes and their respective growth media were obtained from Cell Applications Inc. Recombinant TGF-β2 and BMP4 proteins (R&D Systems) were added to the serum free culture medium for all relevant experiments at a concentration of 10 ng/mL. Cells were treated for 15 minutes to assess ALK2 phosphorylation, 1 hour to measure Smad5 phosphorylation, or 48 hours to induce EndMT. All experiments for this study were performed at minimum in triplicate.
Immunoassays were performed using the following antibodies at concentrations (and using protocols) recommended by the respective manufacturers: FSP-1 (H00006275-M01; Stressgen), ALK2 (sc-5671), Phospho-tyrosine (sc-7020), VE-cadherin (sc-6458), TIE2 (sc-324, sc-9026), STRO-1 (sc-47733), CD44 (sc-71220), CD90 (sc-9163), Osteocalcin (sc-74495, sc-23790), SOX9 (sc-20095), COL2A1 (sc-59958, sc-52658), PPARγ2 (sc-22022; Santa Cruz Biotechnology), vWF (ab68545; Abcam); His (A00174; GenScript); α-SMA (A5228), β-actin (A1978; Sigma-Aldrich). Samples were run with Criterion precast SDS-PAGE Gels (Bio-Rad). HRP-conjugated IgG TrueBlot reagents (18-8814, 18-8816, 18-8817; eBioscience) were used at a dilution of 1:1000. TrueBlot IgG beads (eBioscience) were used for immunoprecipitation experiments. Alexa Fluor secondary antibodies (Invitrogen) were used at a dilution of 1:200. Images were acquired using a Nikon 80i fluorescence microscope.
Human umbilical vein endothelial cells (HUVEC) and human cutaneous microvascular endothelial cells (HCMEC) isolated as previously described (35). […] Cells were grown in culture using EGM-2 medium (Cambrex), containing 10% FBS and 1% Penicillin/Streptomycin, followed by human endothelial serum free medium (Gibco) 24 h prior to all experimental conditions. Bone marrow derived mesenchymal stem cells (ScienCell Research Laboratories) were grown in mesenchymal stem cell medium (ScienCell Research Laboratories). Bone marrow derived hematopoietic stem cells (Lonza) were grown in HPGM medium (Lonza). Human corneal fibroblasts, from a stock provided by Dr. Elizabeth Hay (Harvard Medical School), were grown in RPMI medium, containing 10% FBS and 1% Penicillin/Streptomycin. Primary human osteoblasts, chondrocytes, and adipocytes and their respective growth media were obtained from Cell Applications, Inc. Recombinant TGF-β2, BMP4, and BMP7 proteins (R&D Systems) were added to the serum free culture medium for all relevant experiments at a concentration of 10 ng ml^−1. Recombinant VEGF (R&D Systems) was added to cultures at a concentration of 25 ng ml^−1. Dorsomorphin (Sigma-Aldrich) was added to cultures at a concentration of 5 μM.

ALK2 with ALK5 = molecular target: T1, ALK2 with ALK5; test: Interaction of ALK2 with ALK5: immunoprecipitation of ALK2, immunoblotting for ALK5; type: cell-based; conditions: 10 ng ml−1, 15 min
Experimental: Human umbilical vein endothelial cells (HUVEC) and human cutaneous microvascular endothelial cells (HCMEC) isolated as previously described (35). Cells were tested for purity and found to express no markers for lymphatic endothelial cells or stromal cells (pericytes, smooth muscle cells, etc.) (36). This was reconfirmed by flow cytometry analysis (data not shown). Clonal populations were isolated with PYREX 8×8 mm cloning cylinders (Corning) and shown to respond in a manner identical to that of the cultures used for our experiments (FIG. 25B-D). Cells were grown in culture using EGM-2 medium (Cambrex), containing 10% FBS and 1% Penicillin/Streptomycin, followed by human endothelial serum free medium (Gibco) 24 h prior to all experimental conditions. Bone marrow derived mesenchymal stem cells (ScienCell Research Laboratories) were grown in mesenchymal stem cell medium (ScienCell Research Laboratories). Bone marrow derived hematopoietic stem cells (Lonza) were grown in HPGM medium (Lonza). Human corneal fibroblasts, from a stock provided by Dr. Elizabeth Hay (Harvard Medical School), were grown in RPMI medium, containing 10% FBS and 1% Penicillin/Streptomycin. Primary human osteoblasts, chondrocytes, and adipocytes and their respective growth media were obtained from Cell Applications, Inc. […] Recombinant VEGF (R&D Systems) was added to cultures at a concentration of 25 ng ml^-1. Dorsomorphin (Sigma-Aldrich) was added to cultures at a concentration of 5 μM. All experiments for this study were performed at minimum in triplicate. Immunoassays were performed using the following antibodies at concentrations (and using protocols) recommended by the respective manufacturers: […] Stressgen), phospho-Smad2 (3101), Smad2 (3122), phospho-Smad5 (9516), Smad5 (9517; […] Santa Cruz Biotechnology), osterix (ab22552), adiponectin (ab22554), N-cadherin (ab76057), NG2 (ab83508), vWF (ab68545; Abcam); CD31 (IR610; Dako), […]; GenScript); α-SMA ([…]), β-actin (A1978; Sigma-Aldrich). […] Images were acquired using a Nikon 80i fluorescence microscope.

[2] = siRNA 24 hours, then TGF-β2 or BMP4 48 hours
[3] = siRNA transfected, osteogenic medium 7 days

Molecule	ALK2 expression (immunoblotting) (ALK2)	TGF-β2- or BMP4-induced decrease in VE-cadherin and increase in CD44 expression (ELISA) ([1]; HUVECs, ALK-specific siRNA)	TGF-β2- or BMP4-induced increases in FSP-1 and STRO-1 expression (immunoblotting) ([1]; siRNA 24 h, then TGF-β2 or BMP4 48 h)	TGF-β2- or BMP4-induced STRO-1 expression (immunoblotting) [1, 2]	TGF-β2- or BMP4-induced increase in FSP-1 expression (immunoblotting) [1, 2]	cells expressing FSP-1 after TGF-β2 or BMP4 (flow cytometry) [1, 2]	TGF-β2- or BMP4-induced increases in osteocalcin and osterix expression (real-time quantitative PCR) [1, 3]	alkaline phosphatase staining of TGF-β2 or BMP4 treated cultures [1, 3]	TGF-β2-induced changes in CD31, FSP-1 and CD44 expression (immunoblots) (HUVECs)	effect on EndMT (inhibitor) (HUVECs)	effect on EndMT (EndMT)	phosphorylation of Smad2 and Smad5 (immunoblotting) (Smad2 and Smad5)	ALK5 in ALK2 immunoprecipitates (ALK2 with ALK5)
ALK2 siRNA: 27 mer siRNA duplex 5'-GCAACACUGUCCAUUCUUCUUAACCAG-3′ (SEQ ID NO: 51/56) (chemistry not fully specified)	complete inhibition	inhibited	blocked these increases	prevented TGF-β2- or BMP4-induced increases	completely blocked these increases	very few cells expressing FSP-1	prevented these increases	no positive staining and none					
VEGF									inhibition of TGF-β2-induced decreases in CD31 and increases in FSP-1 and CD44 expression	inhibitors of EndMT	inhibit EndMT		
B1									inhibition of TGF-β2-induced decreases in CD31 and increases in FSP-1 and CD44 expression	inhibits EndMT; also recorded: inhibitors of EndMT		stimulated phosphorylation of only Smad5	No interaction of ALK2 and ALK5
